{"source": "patent US9084546B2", "about": "“Co-electrodeposited hydrogel-conducting polymer electrodes for biomedical applications” (The Regents of the University of Michigan, priority 2005, dated 2015)", "key": {"[1]": {"tested_on": "MCC (mouse primary cortical cultures)", "assay": "Cytotoxicity dose-response of EDOT monomer with PSS dopant (cell viability)", "assay_type": "cell-based", "conditions": "MCC exposed to as much as 0.01 M EDOT, 0.02M PSS for as long as 72 h", "procedure": "(§1) Materials and Methods: SH-SY5Y neuroblastoma-derived cells were maintained in Dulbecco's Modified-Eagle's Media (DMEM with glucose, with L-glutamine; Gibco/Invitrogen, Carlsbad, Calif.) supplemented with Penn-Strep mixed antibiotic solution (dilute 1:100 in cell media; Gibco/Invitrogen) and 10% fetal bovine serum (FBS; Gibco/Invitrogen). Mouse primary dissociated cortical cultures (MCC) were prepared from embryonic day 18-20 (E18-20) mice. […]\n(§2) Cell Viability Assays: Cell viability was assessed using three assays; the Vybrant Live/Dead Assay (Molecular Probes), the MTT cell viability assay (Chemicon, Temecula, Calif.), and immunocytochemistry (ICC) for the apoptosis associated protease, activated caspase 3 (Cell Signaling Technologies, Beverly, Mass.). For Vybrant Live/Dead assay cell quantity, size, and type of nuclear staining intensity were assessed by fluorescence microscopy using 3 different dyes, Hoechst 33342 (labels all cell nuclei but brighter in nuclei of apoptotic cells), YoPro-3 (labels apoptotic cells) and propidium iodide (PI) (labels cells with compromised membrane; apoptotic & necrotic cells). […]"}, "SY5Y cells": {"tested_on": "SY5Y cells", "assay": "Cytotoxicity dose-response of EDOT monomer with PSS dopant (cell viability)", "assay_type": "cell-based", "conditions": "SY5Y cells exposed to as much as 0.01 M EDOT, 0.02M PSS for as long as 72 h", "procedure": "as §1, §2"}}, "data": [{"smiles": "c1scc2c1OCCO2", "note": "[EDOT, 3,4-ethylenedioxythiophene]", "values": [{"measurement": "cell viability", "setting": "[1]", "result": "at least 75%"}, {"measurement": "cell viability", "setting": "SY5Y cells", "result": "at least 75%"}]}]}
